Experimental data: the NIST ThermoML archive (doi:10.1021/acs.jced.8b00036)
“And” between values parts separate entries of the source, which are not always exact repeats. Equal entries are not always repeated.

Conditions: Capillary tube (Ostwald / Ubbelohde) method

FCC(F)(F)F [1,1,1,2-tetrafluoroethane]
Liquid
Conditions | viscosity [mPa·s]
312.75 K, 4064 kPa | 0.1723
312.76 K, 4069 kPa | 0.1731
312.77 K, 3061 kPa | 0.1681
312.78 K, 3042 kPa | 0.1684
312.78 K, 3061 kPa | 0.1682
312.82 K, 4048 kPa | 0.173
312.83 K, 1706 kPa | 0.1656
312.96 K, 1701 kPa | 0.165
313.01 K, 1763 kPa | 0.1654
313.5 K, 1796 kPa | 0.1656
332.79 K, 3072 kPa | 0.1279
332.79 K, 3083 kPa | 0.1284
332.8 K, 3079 kPa | 0.1282
332.8 K, 4005 kPa | 0.1325
332.81 K, 4008 kPa | 0.1324
332.81 K, 4011 kPa | 0.1325
354.96 K, 4007 kPa | 0.09565
355.51 K, 4078 kPa | 0.09407
355.94 K, 4155 kPa | 0.09335

FC(F)(F)/C=C\C(F)(F)F [(Z)-1,1,1,4,4,4-hexafluorobut-2-ene]
Conditions | viscosity
313.83 K, 513 kPa, Liquid | 0.3037 mPa·s
313.84 K, 513 kPa, Liquid | 0.3034 mPa·s
313.84 K, 514 kPa, Liquid | 0.3036 mPa·s
313.92 K, 2053 kPa, Liquid | 0.3115 mPa·s
313.94 K, 2037 kPa, Liquid | 0.3097 mPa·s
313.94 K, 2996 kPa, Liquid | 0.3143 mPa·s
313.94 K, 3001 kPa, Liquid | 0.3146 mPa·s
313.94 K, 4041 kPa, Liquid | 0.3198 mPa·s
313.95 K, 2025 kPa, Liquid | 0.3098 mPa·s
313.95 K, 3000 kPa, Liquid | 0.3143 mPa·s
313.95 K, 4049 kPa, Liquid | 0.3197 mPa·s
313.96 K, 4002 kPa, Liquid | 0.3194 mPa·s
314.26 K, 1040 kPa, Liquid | 0.3074 mPa·s
314.27 K, 1041 kPa, Liquid | 0.3068 mPa·s
314.31 K, 1050 kPa, Liquid | 0.3081 mPa·s
331.5 K, 503 kPa, Liquid | 0.2577 mPa·s
331.5 K, 505 kPa, Liquid | 0.2579 mPa·s
331.51 K, 506 kPa, Liquid | 0.2578 mPa·s
331.57 K, 2020 kPa, Liquid | 0.2593 mPa·s and 0.2599 mPa·s
331.57 K, 2033 kPa, Liquid | 0.26 mPa·s
331.81 K, 1002 kPa, Liquid | 0.2579 mPa·s
331.82 K, 1017 kPa, Liquid | 0.259 mPa·s
331.83 K, 1015 kPa, Liquid | 0.2588 mPa·s
331.84 K, 4062 kPa, Liquid | 0.2658 mPa·s
331.85 K, 4047 kPa, Liquid | 0.2652 mPa·s
331.87 K, 4059 kPa, Liquid | 0.2651 mPa·s
331.94 K, 3026 kPa, Liquid | 0.2608 mPa·s
331.94 K, 3039 kPa, Liquid | 0.2617 mPa·s
331.94 K, 3040 kPa, Liquid | 0.2617 mPa·s
353.79 K, 4019 kPa, Liquid | 0.2122 mPa·s
353.8 K, 4020 kPa, Liquid | 0.212 mPa·s and 0.2117 mPa·s
353.99 K, 2066 kPa, Liquid | 0.2011 mPa·s
353.99 K, 2067 kPa, Liquid | 0.2011 mPa·s
354 K, 2064 kPa, Liquid | 0.201 mPa·s
354.08 K, 3022 kPa, Liquid | 0.2047 mPa·s
354.1 K, 3021 kPa, Liquid | 0.2032 mPa·s
354.23 K, 1032 kPa, Liquid | 0.1944 mPa·s
354.23 K, 1033 kPa, Liquid | 0.1942 mPa·s
354.24 K, 1031 kPa, Liquid | 0.193 mPa·s
374.43 K, 4050 kPa, Liquid | 0.1702 mPa·s
374.43 K, 4056 kPa, Liquid | 0.1702 mPa·s
374.44 K, 2025 kPa, Liquid | 0.1613 mPa·s
374.44 K, 4050 kPa, Liquid | 0.1705 mPa·s
374.45 K, 2025 kPa, Liquid | 0.1618 mPa·s
374.46 K, 2025 kPa, Liquid | 0.1611 mPa·s
374.74 K, 3026 kPa, Liquid | 0.1632 mPa·s and 0.1645 mPa·s
374.75 K, 3026 kPa, Liquid | 0.1635 mPa·s
374.87 K, 492 kPa, Gas | 0.013 mPa·s
374.88 K, 492 kPa, Gas | 0.01305 mPa·s
393.63 K, 3044 kPa, Liquid | 0.1336 mPa·s
393.64 K, 3044 kPa, Liquid | 0.1339 mPa·s
393.65 K, 3044 kPa, Liquid | 0.1332 mPa·s
393.65 K, 4017 kPa, Liquid | 0.1377 mPa·s and 0.138 mPa·s and 0.1378 mPa·s
394 K, 2016 kPa, Liquid | 0.1278 mPa·s
394.01 K, 2016 kPa, Liquid | 0.128 mPa·s
394.03 K, 2016 kPa, Liquid | 0.1282 mPa·s
394.16 K, 499 kPa, Gas | 0.01348 mPa·s
394.19 K, 499 kPa, Gas | 0.01343 mPa·s
413.55 K, 4046 kPa, Liquid | 0.1104 mPa·s
413.56 K, 4047 kPa, Liquid | 0.11 mPa·s
413.63 K, 3011 kPa, Liquid | 0.103 mPa·s
413.63 K, 3015 kPa, Liquid | 0.103 mPa·s
413.75 K, 3010 kPa, Liquid | 0.1029 mPa·s
413.99 K, 503 kPa, Gas | 0.01378 mPa·s
414.21 K, 503 kPa, Gas | 0.01361 mPa·s
414.24 K, 1014 kPa, Gas | 0.01449 mPa·s
414.29 K, 1033 kPa, Gas | 0.01434 mPa·s and 0.01444 mPa·s
434.12 K, 3016 kPa, Liquid | 0.07044 mPa·s and 0.07094 mPa·s
434.13 K, 3016 kPa, Liquid | 0.07045 mPa·s
434.23 K, 502 kPa, Gas | 0.01388 mPa·s
434.23 K, 503 kPa, Gas | 0.01384 mPa·s
434.28 K, 1011 kPa, Gas | 0.01451 mPa·s
434.28 K, 1012 kPa, Gas | 0.01443 mPa·s
434.37 K, 4014 kPa, Liquid | 0.08047 mPa·s and 0.08072 mPa·s and 0.08096 mPa·s
454.24 K, 506 kPa, Gas | 0.01429 mPa·s
454.27 K, 506 kPa, Gas | 0.0143 mPa·s
454.34 K, 1003 kPa, Gas | 0.01547 mPa·s and 0.01568 mPa·s
454.57 K, 2031 kPa, Gas | 0.01628 mPa·s
454.58 K, 2030 kPa, Gas | 0.01633 mPa·s
473.27 K, 509 kPa, Gas | 0.02101 mPa·s
474.67 K, 500 kPa, Gas | 0.0152 mPa·s
474.69 K, 500 kPa, Gas | 0.01519 mPa·s
474.82 K, 999 kPa, Gas | 0.01587 mPa·s
474.83 K, 2004 kPa, Gas | 0.0169 mPa·s
474.84 K, 2004 kPa, Gas | 0.01661 mPa·s
474.85 K, 1000 kPa, Gas | 0.01579 mPa·s
